The source of these data is PubChem BioAssay (NCI).

What all share (experiment): NCI tumour cell line growth inhibition, 48 h
Test [1] has as its system HOP-62 NSCLC.
Test [2] concerns IGROV1 ovarian.
The test system of test [3] is KM12 colon.
Test [4] deals with SR leukemia.
Test [5] relates to RXF 393 renal.
In test [6] the test system is SK-MEL-28 melanoma.
In test [7] the test system is A549 NSCLC.
Test [8] deals with BT-549 breast.
Test [9] deals with HCT-15 colon.
The test system of test [10] is OVCAR-4 ovarian.

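Method: 48-hour compound exposure of cells in 96-well plates, five concentrations, linear interpolation of endpoints. GI50: concentration for 50% inhibition of growth. TGI denotes the concentration required for complete inhibition of growth.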

In the case of `CN(c1cccc(C(=O)O)c1)c1cc(O/N=[N+](\[O-])N(C)C)c([N+](=O)[O-])cc1[N+](=O)[O-]`, the GI50 is 46.8 µM in test [1]; above 100 µM in test [2]; above 100 µM in test [3]; 56.4 µM in test [4]; above 100 µM in test [5]; 85.1 µM in test [6]. Moreover, the GI50 in test [7], in [8] and in test [9] was above 100 µM each time. The TGI in [1], in test [2], in test [3], in test [4], in test [5] and in test [6] was above 100 µM each time. Besides, the TGI in test [7], in test [8] and in test [9] was above 100 µM in each case.

With `O=S(=O)(F)Cc1ccccc1`, the TGI in test [1], in test [10], in test [2], in test [3], in [4] and in test [6] was above 100 µM in each case. The TGI in test [7], in test [8] and in [9] was above 100 µM each time.

Regarding `Nc1[nH]nc(Nc2ccccc2)c1-c1nc2ccccc2s1`, the GI50 in test [1] is 2.08 µM; in test [10], 2.19 µM; in [2] it was 2.58 µM; in [3], 1.61 µM; in test [4], 1.84 µM; in test [6], 2.06 µM. In addition, the GI50 in test [7] was 2.96 µM; in test [8] it was 1.52 µM; in test [9], 1.18 µM. The TGI in [1] was 5.87 µM; in test [10] it was 11.8 µM; in test [2] it was 8.88 µM; in test [3] it was 3.6 µM; in test [4] it was 8.02 µM; in test [6], 4.29 µM. Further, the TGI in [7] turned out to be 11.9 µM; in [8], 3.34 µM; in test [9], 3.04 µM.

`Nc1n[n+]([O-])c2ccc(Cl)cc2[n+]1[O-]`: the TGI in test [1] was 79.7 µM; in test [2], 25.3 µM; in test [3], 32.6 µM; in test [4], above 100 µM; in [5] it was 54.1 µM; in test [6], 67.7 µM. Further, the TGI in test [7] was above 100 µM; in [8] it was 29.2 µM; in [9], 58.9 µM.

`CCN(CC)CCC(=O)/C=C/c1ccc(Cl)c(Cl)c1`: the TGI in [1] is above 10 µM; in test [10], above 10 µM; in test [3], above 10 µM; in test [4], 9.43 µM; in [7], above 10 µM; in test [8], above 10 µM. Besides, in test [9], the TGI is above 10 µM.

As to `COc1ccc(Cn2cc3c(c2-c2ccccc2)CCc2cnoc2-3)cc1`, the GI50 in test [1] is 0.279 µM; in test [10], 0.47 µM; in test [2] it was 0.114 µM; in [3], 0.103 µM; in [4], 0.0574 µM; in test [6], 33.9 µM. Further, the GI50 in [7] was 0.293 µM; in test [8] it was 0.389 µM; in test [9] it was 0.127 µM. Also, the TGI in test [1] is above 48.5 µM; in test [10], above 100 µM; in test [2] it was above 100 µM; in [3], 2.97 µM; in [4] it was 3.16 µM; in test [6], above 100 µM. The TGI in test [7], in test [8] and in test [9] was above 100 µM throughout.

As for `N[C@H]1CCC[C@@H](O)C1O` (some centres undefined), the TGI in [1], in test [2], in test [3], in test [4], in test [6] and in test [7] was above 100 µM in each case. In addition, the TGI in [8] and in test [9] was above 100 µM in each case.

As to `CC(C)(C)OC(=O)NCCCCCCCCCn1c2c(c3ccccc3c1=O)C(=O)c1ccccc1-2`, the GI50 in test [1] was 24.8 µM; in test [10], above 100 µM; in test [2], 36.1 µM; in [3], above 100 µM; in test [5], 20.5 µM; in test [6], above 100 µM. For the same compound, the GI50 in [7] is above 100 µM; in [8] it was 35.1 µM; in [9], above 100 µM. For the same compound, the TGI in [1] is 71.6 µM; in test [10] it was above 100 µM; in test [2] it was above 100 µM; in [3] it was above 100 µM; in test [5] it was above 100 µM; in test [6] it was above 100 µM. The TGI in test [7], in test [8] and in test [9] was above 100 µM in each case.

`CN(C)CCNC(=O)c1ccc2c(c1)oc1cc3ccccc3c(=O)n12`: the GI50 in test [1] was 16 µM; in [2] it was 10.6 µM; in [3], 17 µM; in test [4], 13.4 µM; in test [5], 19.6 µM; in test [7], 12.3 µM. In addition, the GI50 in test [8] was 25.9 µM; in test [9], 12.8 µM. Also, the TGI is 30.8 µM in test [1]; 26.4 µM in test [2]; 45.3 µM in test [3]; above 100 µM in test [4]; 36.6 µM in test [5]; 27.5 µM in [7]. The values for the TGI in test [8] and in test [9] were 45.8 µM and 31.4 µM, respectively.

As to `COc1ccc([N+](=O)[O-])c2c(NCCCN(C)C)c(C)c(C)nc12`, the TGI in test [1] was above 100 µM; in test [10], 63.5 µM; in test [2], above 100 µM; in test [3], above 100 µM; in test [4] it was 56.6 µM; in [6], above 100 µM. Also, the TGI in test [7], in test [8] and in [9] was above 100 µM each time.

`O=C1/C(=C/c2ccc(F)cc2)COc2ccc(O)c(O)c21`: the GI50 in test [1] was 3.43 µM; in [10] it was 2.77 µM; in [2], 1.1 µM; in test [3], 1.99 µM; in test [5], 1.85 µM; in test [6], 2.27 µM. Also, the values for the GI50 in test [7], in test [8] and in [9] were 3.32 µM, 2.96 µM and 0.755 µM, respectively. Also, the TGI in test [1] was 17.8 µM; in test [10], above 100 µM; in [2], 3.94 µM; in test [3], 6.82 µM; in test [5], 3.64 µM; in test [6] it was 5.91 µM. The values for the TGI in test [7], in test [8] and in [9] were above 100 µM, 8.73 µM and 5.85 µM, respectively.

For the compound `COc1ccc(/C=C\c2cc(OC)c(OC)c(OC)c2)cc1NC(=O)/C=C/c1ccc(OC)c(OC)c1`, the GI50 in test [1] is 5.42 µM; in [10], 8.01 µM; in test [2], 18.8 µM; in test [3], 3.91 µM; in test [4], 0.412 µM; in test [6], 3.39 µM. For the same compound, the GI50 in test [7] is 4.89 µM; in test [8] it was 7.7 µM; in [9] it was 4.41 µM. Besides, the TGI in [1], in test [10], in [2], in [3], in [4] and in test [6] was above 100 µM in each case. Further, the TGI in test [7], in test [8] and in test [9] was above 100 µM each time.

In the case of `CC(C)(C)OC(=O)N(CCCCN(CCCn1c2c(c3ccccc3c1=O)C(=O)c1ccccc1-2)C(=O)OC(C)(C)C)CCCn1c2c(c3ccccc3c1=O)C(=O)c1ccccc1-2`, the GI50 is 11 µM in [1]; above 100 µM in test [10]; 79.6 µM in test [3]; 0.304 µM in [4]; above 100 µM in test [6]; 18.9 µM in test [7]. Further, the GI50 in test [8] was above 100 µM; in test [9], 23.4 µM. Also, the TGI was 73.8 µM in test [1]; above 100 µM in [10]; above 100 µM in test [3]; above 100 µM in [4]; above 100 µM in test [6]; above 100 µM in test [7]. Moreover, the TGI in [8] and in [9] was above 100 µM each time.

With `O=NNc1ccc(-c2ccccc2)cn1`, the TGI in test [1] was 20.6 µM; in test [10], above 70.6 µM; in test [2] it was above 81.3 µM; in [3] it was above 82.1 µM; in test [5], 12.7 µM; in test [6] it was above 80.1 µM. The TGI was above 92.3 µM in test [7], above 100 µM in [8] and 56.1 µM in test [9].

With `CC(=O)c1cc2c(Br)cccc2oc1=O`, the TGI in [1], in [10], in [2], in [4], in test [5] and in [6] was above 100 µM each time. Moreover, the TGI in test [7], in test [8] and in test [9] was above 100 µM throughout.

For the compound `COC(=O)NC1(NC(=O)OC)NC(=O)c2ccccc2N1`, the TGI in test [1], in test [10], in [2], in [3], in [4] and in [6] was above 100 µM each time. For the same compound, the TGI in test [7], in test [8] and in test [9] was above 100 µM in each case.
